# Measured values taken from patent US20030104507A1, “Method for detection of ATP” (priority 2001, published 2003).
# What was measured:
# LucPpy = target: T1, LucPpy (Photinus pyralis, UniProt P08659); test: Stability of reagent composition with LucPpy and detergent (RT, pH 7.0); format: biochemical; settings: LucPpy
# T1 construct: purchased Promega E170A
# In short: (§1)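 Reagent with 50 μg/ml luciferase, luciferin, MgSO4, buffer and detergent at varying concentrations held at about 23° C; enzyme added just before first read. At timepoints, aliquots mixed 1:1 with media containing ATP and luminescence read immediately (0.5 s/well, triplicate); reaction half-lives and percent of original luminescence derived.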
# LucPpe2m146 = test: Stability of reagent composition with LucPpe2m146 and detergent (RT, pH 7.0); format: biochemical, Photuris pennsylvanica
# In short: as §1
# [1] = target: native firefly luciferase (Photinus pyralis, UniProt P08659); settings: cited from earlier work
# native firefly luciferase, sequence (P08659 whole entry): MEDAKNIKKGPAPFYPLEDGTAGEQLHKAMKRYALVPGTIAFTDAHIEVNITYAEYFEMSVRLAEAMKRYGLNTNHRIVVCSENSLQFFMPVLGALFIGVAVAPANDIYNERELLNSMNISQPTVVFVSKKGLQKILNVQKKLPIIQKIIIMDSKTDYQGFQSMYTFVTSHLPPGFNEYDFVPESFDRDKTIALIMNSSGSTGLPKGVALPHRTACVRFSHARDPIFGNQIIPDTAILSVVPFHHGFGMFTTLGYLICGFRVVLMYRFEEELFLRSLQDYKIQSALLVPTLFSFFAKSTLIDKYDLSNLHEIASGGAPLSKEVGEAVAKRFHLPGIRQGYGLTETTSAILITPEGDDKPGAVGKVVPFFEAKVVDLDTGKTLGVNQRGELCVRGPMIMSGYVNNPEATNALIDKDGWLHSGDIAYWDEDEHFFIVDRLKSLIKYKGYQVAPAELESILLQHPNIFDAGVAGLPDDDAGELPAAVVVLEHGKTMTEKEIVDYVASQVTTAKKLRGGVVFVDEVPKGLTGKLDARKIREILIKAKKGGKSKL
smiles,measurement,setting,value
"CCCCCCCCCCCCCCCC[N+](C)(C)C.[Br-] [CTAB, Cetyltrimethylammonium bromide]",Average Relative Light Units,"LucPpy; 0.02%, 0.75 min (head r25)",1869.80 rlu
same,Percent of Luminescence Remaining,"LucPpy; 0.02%, 0.75 min (times of Table I r25)",100.00%
same,Average Relative Light Units,"LucPpy; 0.02%, 6 min (head r25)",79.719 rlu
same,Percent of Luminescence Remaining,"LucPpy; 0.02%, 6 min (times of Table I r25)",0.09%
same,Percent of Luminescence Remaining,"LucPpy; 0.02%, 16 min (times of Table I r25, r31)",0.03%
same,Average Relative Light Units,"LucPpy; 0.02%, (16 min) (head r25)",0.099 rlu
same,Average Relative Light Units,"LucPpy; 0.05%, 0.75 min (head r25)",1134.53 rlu
same,Percent of Luminescence Remaining,"LucPpy; 0.05%, 0.75 min (times of Table I r25)",100.00%
same,Average Relative Light Units,"LucPpy; 0.05%, 6 min (head r25)",0.563 rlu
same,Percent of Luminescence Remaining,"LucPpy; 0.05%, 6 min (times of Table I r25)",0.05%
same,Average Relative Light Units,"LucPpy; 0.05%, 20 min (head r25)",0.015 rlu
same,Percent of Luminescence Remaining,"LucPpy; 0.05%, 20 min (times of Table I r25)",0.00%
same,Average Relative Light Units,"LucPpy; 0.1%, 0.75 min (head r25)",94.603 rlu
same,Percent of Luminescence Remaining,"LucPpy; 0.1%, 0.75 min (times of Table I r25)",100.00%
same,Average Relative Light Units,"LucPpy; 0.1%, 6 min (head r25)",0.020 rlu
same,Percent of Luminescence Remaining,"LucPpy; 0.1%, 6 min (times of Table I r25)",0.02%
same,Average Relative Light Units,"LucPpe2m146; LucPpe2m146, 0.02%, 1.0 min (head r61)",11019.8 rlu
same,Percent of Luminescence Remaining,"LucPpe2m146; LucPpe2m146, 0.02%, 1.0 min (times of Table I r61)",100.00%
same,Average Relative Light Units,"LucPpe2m146; LucPpe2m146, 0.02%, 37 min (head r61)",2051.7 rlu
same,Percent of Luminescence Remaining,"LucPpe2m146; LucPpe2m146, 0.02%, 37 min (times of Table I r61)",18.62%
same,Average Relative Light Units,"LucPpe2m146; LucPpe2m146, 0.02%, 67 min (head r61)",1087.4 rlu
same,Percent of Luminescence Remaining,"LucPpe2m146; LucPpe2m146, 0.02%, 67 min (times of Table I r61)",9.87%
same,Average Relative Light Units,"LucPpe2m146; LucPpe2m146, 0.02%, 116 min (head r61)",6117.8 rlu
same,Percent of Luminescence Remaining,"LucPpe2m146; LucPpe2m146, 0.02%, 116 min (times of Table I r61)",55.52%
same,Average Relative Light Units,"LucPpe2m146; LucPpe2m146, 0.02%, 177 min (head r61)",16020.8 rlu
same,Percent of Luminescence Remaining,"LucPpe2m146; LucPpe2m146, 0.02%, 177 min (times of Table I r61)",145.38%
same,Average Relative Light Units,"LucPpe2m146; LucPpe2m146, 0.02%, 243 min (head r61)",16368.5 rlu
same,Percent of Luminescence Remaining,"LucPpe2m146; LucPpe2m146, 0.02%, 243 min (times of Table I r61)",148.54%
same,Average Relative Light Units,"LucPpe2m146; LucPpe2m146, 0.05%, 1.0 min (head r61)",11992.5 rlu
same,Percent of Luminescence Remaining,"LucPpe2m146; LucPpe2m146, 0.05%, 1.0 min (times of Table I r61)",100.00%
same,Average Relative Light Units,"LucPpe2m146; LucPpe2m146, 0.05%, 37 min (head r61)",301.5 rlu
same,Percent of Luminescence Remaining,"LucPpe2m146; LucPpe2m146, 0.05%, 37 min (times of Table I r61)",2.51%
same,Average Relative Light Units,"LucPpe2m146; LucPpe2m146, 0.05%, 67 min (head r61)",131.7 rlu
same,Percent of Luminescence Remaining,"LucPpe2m146; LucPpe2m146, 0.05%, 67 min (times of Table I r61)",1.10%
same,Average Relative Light Units,"LucPpe2m146; LucPpe2m146, 0.05%, 116 min (head r61)",4219.7 rlu
same,Percent of Luminescence Remaining,"LucPpe2m146; LucPpe2m146, 0.05%, 116 min (times of Table I r61)",35.19%
same,Average Relative Light Units,"LucPpe2m146; LucPpe2m146, 0.05%, 177 min (head r61)",16910.8 rlu
same,Percent of Luminescence Remaining,"LucPpe2m146; LucPpe2m146, 0.05%, 177 min (times of Table I r61)",141.01%
same,Average Relative Light Units,"LucPpe2m146; LucPpe2m146, 0.05%, 243 min (head r61)",17340.0 rlu
same,Percent of Luminescence Remaining,"LucPpe2m146; LucPpe2m146, 0.05%, 243 min (times of Table I r61)",144.5%
same,Average Relative Light Units,"LucPpe2m146; LucPpe2m146, 0.1%, 1.0 min (head r61)",1047.8 rlu
same,Percent of Luminescence Remaining,"LucPpe2m146; LucPpe2m146, 0.1%, 1.0 min (times of Table I r61)",100.00%
same,Average Relative Light Units,"LucPpe2m146; LucPpe2m146, 0.1%, 37 min (head r61)",5.3 rlu
same,Percent of Luminescence Remaining,"LucPpe2m146; LucPpe2m146, 0.1%, 37 min (times of Table I r61)",0.51%
same,Average Relative Light Units,"LucPpe2m146; LucPpe2m146, 0.1%, 67 min (head r61)",5.2 rlu
same,Percent of Luminescence Remaining,"LucPpe2m146; LucPpe2m146, 0.1%, 67 min (times of Table I r61)",0.50%
same,Average Relative Light Units,"LucPpe2m146; LucPpe2m146, 0.1%, 116 min (head r61)",6.2 rlu
same,Percent of Luminescence Remaining,"LucPpe2m146; LucPpe2m146, 0.1%, 116 min (times of Table I r61)",0.59%
same,Average Relative Light Units,"LucPpe2m146; LucPpe2m146, 0.1%, 177 min (head r61)",6.0 rlu
same,Percent of Luminescence Remaining,"LucPpe2m146; LucPpe2m146, 0.1%, 177 min (times of Table I r61)",0.58%
same,Average Relative Light Units,"LucPpe2m146; LucPpe2m146, 0.1%, 243 min (head r61)",5.7 rlu
same,Percent of Luminescence Remaining,"LucPpe2m146; LucPpe2m146, 0.1%, 243 min (times of Table I r61)",0.55%
same,effect on native firefly luciferase,[1],inactivated
